Measured values as given in patent US10160747B2, “Compounds and methods for kinase modulation, and indications therefor” (Plexxikon Inc., priority 2016, dated 2018).
Substitutions are numbered along the chain they refer to. pIC50: −log10 of the molar value.

Assays:
[1] = biological target: T1, FLT3-ITD (Homo sapiens, UniProt P36888); test: FLT3-ITD recombinant enzyme kinase assay (AlphaScreen); format: biochemical; settings: 8 pt; read-out: FLT3_ITD 8 pt: IC50
T1 sequence (P36888 1-993): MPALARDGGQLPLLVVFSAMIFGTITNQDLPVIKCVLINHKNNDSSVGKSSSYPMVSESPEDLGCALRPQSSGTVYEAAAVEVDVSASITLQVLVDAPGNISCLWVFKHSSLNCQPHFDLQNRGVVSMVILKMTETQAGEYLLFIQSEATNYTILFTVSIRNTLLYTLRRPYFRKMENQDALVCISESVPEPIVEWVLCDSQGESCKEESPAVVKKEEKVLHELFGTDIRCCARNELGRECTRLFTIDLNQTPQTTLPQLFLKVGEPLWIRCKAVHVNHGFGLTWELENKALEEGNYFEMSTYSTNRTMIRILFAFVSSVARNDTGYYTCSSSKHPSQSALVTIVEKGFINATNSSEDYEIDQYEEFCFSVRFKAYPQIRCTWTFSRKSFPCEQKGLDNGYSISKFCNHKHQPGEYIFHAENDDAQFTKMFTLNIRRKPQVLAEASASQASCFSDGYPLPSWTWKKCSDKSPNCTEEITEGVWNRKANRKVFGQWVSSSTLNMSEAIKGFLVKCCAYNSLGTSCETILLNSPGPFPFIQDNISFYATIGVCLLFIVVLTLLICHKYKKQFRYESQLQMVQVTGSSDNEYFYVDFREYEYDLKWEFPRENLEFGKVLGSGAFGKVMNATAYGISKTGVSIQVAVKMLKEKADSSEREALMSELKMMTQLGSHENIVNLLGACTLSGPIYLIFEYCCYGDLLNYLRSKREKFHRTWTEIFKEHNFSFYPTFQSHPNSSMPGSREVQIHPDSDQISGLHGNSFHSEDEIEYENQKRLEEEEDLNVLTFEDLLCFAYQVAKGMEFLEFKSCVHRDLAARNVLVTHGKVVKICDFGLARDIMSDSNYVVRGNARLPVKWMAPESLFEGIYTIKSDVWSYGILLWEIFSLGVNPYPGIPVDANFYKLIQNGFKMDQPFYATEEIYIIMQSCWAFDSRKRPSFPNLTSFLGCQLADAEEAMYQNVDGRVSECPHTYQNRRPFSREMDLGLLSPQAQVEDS
Procedure: (§1) In order to determine the effect of compounds on FLT3 catalytic activity, kinase assays using recombinant enzymes and AlphaScreen® technology have been established. The catalytic activity of c-kit activity was also measured to determine selectivity of the compounds. When the kinases are catalytically active, they phosphorylate a biotinylated peptide substrate on tyrosine residues. Using AlphaScreen® technology, the ability of the compounds to affect the catalytic activity of the kinases can be measured quantitatively. The peptide substrate is immobilized by the AlphaScreen® Streptavidin Donor beads and, upon phosphorylation by a tyrosine kinase, can bind to AlphaScreen® Anti-Phosphotyrosine (PY20) Acceptor beads. Upon excitation of these beads with laser light at 680 nm, singlet oxygen is produced. This singlet oxygen is rapidly quenched, unless the AlphaScreen® Anti-Phosphotyrosine (PY20) Acceptor beads are in close proximity, in which case a proximity signal can be measured at 580 nm. In the presence of catalytic activity, there is a very strong proximity signal. Selective kinase inhibitors affect a decrease in this proximity signal through a decrease in tyrosine phosphorylation of the peptide substrate.
(§2) The assay was performed as summarized below.
(§3) Poly (Glu4-Tyr) Peptide, biotin conjugate [Biotin-GG(EEEEY)10EE] (SEQ ID NO: 4)
(§4) Final concentration=30 nM
(§5) Adenosine Triphosphate (ATP)
(§6) Final concentration for IC50 determination=10 μM (FLT3-D835Y or FLT3-ITD) or 100 μM (c-KIT)
(§7) AlphaScreen® Phosphotyrosine (PY20) Assay Kit
(§8) Final concentration=10 μg/mL
(§9) Dilute compounds in DMSO to 20× final concentration.
(§10) Add 1 μL of compound to each well of 384 well reaction plate (Perkin Elmer #6005359).
(§11) Mix enzyme and Poly (Glu4-Tyr) Peptide substrate at 1.33× final concentration in assay buffer.
(§12) Mix ATP at 5× final concentration in assay buffer.
(§13) Add 15 μL enzyme/substrate mixture to the reaction plate.
(§14) Add 4 μL of ATP to the reaction plate.
(§15) Mix Streptavidin Donor beads at 6× final concentration in Stop/Detection buffer.
(§16) Add 5 μL Streptavidin Donor beads to the reaction plate. Centrifuge 1 minute, shake to mix, and incubate at room temperature for 20 minutes.
(§17) Mix Anti-Phosphotyrosine (PY20) Acceptor beads at 6× final concentration in Stop/Detection buffer.
(§18) Add 5 μL Anti-Phosphotyrosine (PY20) beads to the reaction plate.
(§19) Centrifuge 1 minute, shake to mix, and incubate at room temperature for 60 minutes.
(§20) Read plate on Wallac EnVision™ 2103 Multilabel Reader.

[2] = biological target: T2, c-KIT (Homo sapiens, UniProt P10721); test: c-KIT recombinant enzyme kinase assay (AlphaScreen); format: biochemical; settings: 100 ATP, 8 pt
T2 construct: purchased Millipore 14-559K
Procedure: as §1, §2, §3, §4, §5, §6, §7, §8, §9, §10, §11, §12, §13, §14, §15, §16, §17, §18, §19, §20

[3] = biological target: T3, BaF3-FLT3-ITD-F691L (Homo sapiens, UniProt P36888, F691L, cells depend on it, form not given); test: Cell Assay CS0047: BaF3-FLT3-ITD-F691L CTB; format: cell-based, murine; settings: three day growth assay in the absence of IL3; read-out: Cell Assay: CS0047: BaF3-FLT3-ITD-F691L CTB:IC50
T3 sequence (P36888 with tags, fused parts or gaps INS600HVDFREYEYD/F691L): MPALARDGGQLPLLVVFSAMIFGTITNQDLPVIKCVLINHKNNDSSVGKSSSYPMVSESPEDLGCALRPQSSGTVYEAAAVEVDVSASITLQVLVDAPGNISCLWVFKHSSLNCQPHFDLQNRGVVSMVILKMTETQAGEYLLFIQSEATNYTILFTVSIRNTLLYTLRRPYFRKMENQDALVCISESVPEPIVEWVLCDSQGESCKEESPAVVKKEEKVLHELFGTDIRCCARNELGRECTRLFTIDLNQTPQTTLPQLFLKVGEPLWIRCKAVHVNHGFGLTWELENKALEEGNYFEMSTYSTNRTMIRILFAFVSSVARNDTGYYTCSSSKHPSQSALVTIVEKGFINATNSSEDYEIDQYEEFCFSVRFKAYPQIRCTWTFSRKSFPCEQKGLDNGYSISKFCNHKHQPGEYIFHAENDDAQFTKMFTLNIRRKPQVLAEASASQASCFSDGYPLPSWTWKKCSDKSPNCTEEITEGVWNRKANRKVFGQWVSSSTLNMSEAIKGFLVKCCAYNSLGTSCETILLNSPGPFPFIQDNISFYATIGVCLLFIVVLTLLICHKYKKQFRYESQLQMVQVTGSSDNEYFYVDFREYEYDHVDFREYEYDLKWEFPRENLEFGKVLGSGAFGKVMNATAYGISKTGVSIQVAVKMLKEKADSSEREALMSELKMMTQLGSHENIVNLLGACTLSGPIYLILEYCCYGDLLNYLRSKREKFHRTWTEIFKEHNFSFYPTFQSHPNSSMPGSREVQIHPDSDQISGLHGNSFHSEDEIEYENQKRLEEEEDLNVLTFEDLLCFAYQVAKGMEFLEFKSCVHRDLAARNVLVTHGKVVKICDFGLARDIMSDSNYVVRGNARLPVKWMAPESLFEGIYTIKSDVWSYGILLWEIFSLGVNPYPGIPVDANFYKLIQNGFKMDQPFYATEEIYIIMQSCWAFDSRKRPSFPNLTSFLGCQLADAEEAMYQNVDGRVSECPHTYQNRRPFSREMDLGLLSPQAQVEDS
Description: (§21) The BaF3 assays as developed used to generate the data in Tables 7 and 8 are identical and differ only in minor details in regards to vector design, not biological function. Both introduce the FLT3 gene with MV4-11 based ITD duplications and resistance mutations from an exogenous promoter (MSCV and CMV respectively) in the exact same cell line.
(§22) As a result of the expressed FLT3 protein, the IL3 factor dependent BaF3 cell clones become IL3-factor independent.
(§23) The compounds in Tables 7 and 8 were tested in an identical fashion by incubating such clones in with increasing concentrations. Inhibition of the FLT3 activity by an inhibitor results in factor dependency, which in the absence of IL3 results in cell death in the three day growth assays.

[4] = biological target: T4, BaF3-FLT3-ITD-D835V (Homo sapiens, UniProt P36888, D835V, cells depend on it, form not given); test: Cell Assay CS0048: BaF3-FLT3-ITD-D835V CTB; format: cell-based, murine; settings: three day growth assay in the absence of IL3; read-out: Cell Assay: CS0048: BaF3-FLT3-ITD-D835V CTB:IC50
T4 sequence (P36888 with tags, fused parts or gaps INS600HVDFREYEYD/D835V): T3 sequence (P36888 with tags, fused parts or gaps INS600HVDFREYEYD/F691L) with L701F, D845V
Description: as §21, §22, §23

[5] = biological target: T5, FLT3-D835Y (Homo sapiens, UniProt P36888, D835Y); test: FLT3-D835Y recombinant enzyme kinase assay (AlphaScreen); format: biochemical; settings: 8 pt, GMean
T5 construct: purchased Invitrogen PV3967
T5 sequence (P36888 27-993 D835Y): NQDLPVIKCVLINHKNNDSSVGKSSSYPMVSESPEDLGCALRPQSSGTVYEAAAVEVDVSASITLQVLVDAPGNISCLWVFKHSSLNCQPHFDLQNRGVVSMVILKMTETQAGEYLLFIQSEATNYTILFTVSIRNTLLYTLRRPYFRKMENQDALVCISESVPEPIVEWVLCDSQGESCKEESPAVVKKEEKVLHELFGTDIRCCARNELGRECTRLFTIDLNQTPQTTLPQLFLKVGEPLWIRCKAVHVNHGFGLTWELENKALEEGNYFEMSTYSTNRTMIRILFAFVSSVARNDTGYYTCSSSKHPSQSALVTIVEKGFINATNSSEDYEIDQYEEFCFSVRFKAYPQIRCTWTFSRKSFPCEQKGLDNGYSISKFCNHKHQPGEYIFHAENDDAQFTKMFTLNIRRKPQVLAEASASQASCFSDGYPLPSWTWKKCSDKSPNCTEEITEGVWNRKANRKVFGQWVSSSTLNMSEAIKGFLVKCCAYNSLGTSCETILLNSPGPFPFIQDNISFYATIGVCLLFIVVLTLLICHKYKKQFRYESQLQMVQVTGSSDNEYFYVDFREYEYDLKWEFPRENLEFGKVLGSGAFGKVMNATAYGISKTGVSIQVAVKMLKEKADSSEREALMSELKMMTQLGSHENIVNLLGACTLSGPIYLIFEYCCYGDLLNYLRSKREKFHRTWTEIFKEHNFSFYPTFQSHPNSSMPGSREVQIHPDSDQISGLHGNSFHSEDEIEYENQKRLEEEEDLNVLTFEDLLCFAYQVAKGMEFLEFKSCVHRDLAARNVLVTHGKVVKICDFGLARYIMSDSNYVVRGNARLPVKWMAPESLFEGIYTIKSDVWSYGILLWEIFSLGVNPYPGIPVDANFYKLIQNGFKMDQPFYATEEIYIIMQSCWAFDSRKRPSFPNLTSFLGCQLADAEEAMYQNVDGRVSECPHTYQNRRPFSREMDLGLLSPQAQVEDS
Procedure: as §1, §2, §3, §4, §5, §6, §7, §8, §9, §10, §11, §12, §13, §14, §15, §16, §17, §18, §19, §20

T2 sequence (P10721 26-976): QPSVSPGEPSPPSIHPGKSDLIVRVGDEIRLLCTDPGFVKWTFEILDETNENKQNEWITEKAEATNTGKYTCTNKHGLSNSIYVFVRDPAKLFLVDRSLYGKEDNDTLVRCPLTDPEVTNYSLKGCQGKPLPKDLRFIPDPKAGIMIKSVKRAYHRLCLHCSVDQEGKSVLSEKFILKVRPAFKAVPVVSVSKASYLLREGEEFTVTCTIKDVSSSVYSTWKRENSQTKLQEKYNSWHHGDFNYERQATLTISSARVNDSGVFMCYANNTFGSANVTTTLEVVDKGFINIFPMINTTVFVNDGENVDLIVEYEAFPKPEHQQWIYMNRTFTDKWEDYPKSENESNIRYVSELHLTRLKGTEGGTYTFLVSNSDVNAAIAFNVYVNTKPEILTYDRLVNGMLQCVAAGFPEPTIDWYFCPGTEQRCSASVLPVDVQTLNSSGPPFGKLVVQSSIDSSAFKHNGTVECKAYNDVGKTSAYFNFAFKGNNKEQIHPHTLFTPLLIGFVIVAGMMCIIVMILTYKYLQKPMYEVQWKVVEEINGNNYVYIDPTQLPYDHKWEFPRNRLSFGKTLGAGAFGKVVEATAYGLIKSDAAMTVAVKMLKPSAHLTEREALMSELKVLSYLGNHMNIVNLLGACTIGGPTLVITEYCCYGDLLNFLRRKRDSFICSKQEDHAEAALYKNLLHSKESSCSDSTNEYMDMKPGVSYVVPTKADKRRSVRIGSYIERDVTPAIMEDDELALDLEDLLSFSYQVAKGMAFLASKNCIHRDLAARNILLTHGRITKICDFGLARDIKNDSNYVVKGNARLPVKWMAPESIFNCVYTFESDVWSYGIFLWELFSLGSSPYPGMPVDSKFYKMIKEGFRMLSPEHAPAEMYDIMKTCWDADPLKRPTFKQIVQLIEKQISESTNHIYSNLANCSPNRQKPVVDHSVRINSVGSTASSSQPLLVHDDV

Compound | pIC50 [1] | pIC50 [2] | GI50 [3] | GI50 [4] | pIC50 [5]
CCNc1ccc(-c2ccc(CC(=O)Nc3cc(C(C)(C)C)on3)cc2)cn1 |  |  | 45.4 nM | 94.2 nM | 
COc1ncc(NC(=O)Cc2ccc(-c3cnc(Nc4cn[nH]c4)nc3)c(F)c2)cc1C(F)(F)F [Compound P-0028, 2-[3-fluoro-4-[2-(1H-pyrazol-4-ylamino)pyrimidin-5-yl]phenyl]-N-[6-methoxy-5-(trifluoromethyl)-3-pyridyl]acetamide] | 5.00 to 10.00 | 5.00 to 10.00 |  |  | 5.00 to 10.00
O=C(Cc1ccc(-c2cnc3[nH]c(C4CC4)cc3c2)cc1F)Nc1cncc(C(F)(F)F)c1 [Compound P-0080, 2-(4-(2-cyclopropyl-1H-pyrrolo[2,3-b]pyridin-5-yl)-2-fluorophenyl)-N-(5-(trifluoromethyl)pyridin-3-yl)acetamide] | 5.00 to 10.00 | 5.00 to 10.00 |  |  | 5.00 to 10.00

Continued, values first:

pIC50 [1] | pIC50 [2] | GI50 [3] | GI50 [4] | pIC50 [5] | Compound
5.00 to 10.00 | 5.00 to 10.00 |  |  |  | Cn1cc(Nc2ncc(-c3ccc(CC(=O)Nc4cc(F)c(F)cn4)cc3)cn2)cn1 [Compound P-0163, N-(4,5-difluoro-2-pyridyl)-2-[4-[2-[(1-methylpyrazol-4-yl)amino]pyrimidin-5-yl]phenyl]acetamide]
 | 5.00 to 10.00 |  |  | 5.00 to 10.00 | COc1ncc(NC(=O)Cc2ccc(-c3cnc4[nH]nc(F)c4c3)cc2)cc1C(F)(F)F [Compound P-0245, 2-[4-(3-fluoro-1H-pyrazolo[3,4-b]pyridin-5-yl)phenyl]-N-[6-methoxy-5-(trifluoromethyl)-3-pyridyl]acetamide]
